# Experiments:
# [1] = Viscosity responsiveness: fluorescence emission spectra of probes in glycerol and methanol; assay type: physicochemical; details: for Emission wavelength: excited at maximum excitation wavelength of each probe; for Fluorescence ratio in glycerol to methanol: probe 1×10^−5 M
# Method: Probes 1 to 98, 101, 103, 105, 107, 109, 111, 114, 117, and 120, and the reference probes 99, 100, 102, 104, 106, 108, 110, 112, 113, 115, 116, 118, 119, 121, BG-CCVJ and BG-Gly-CCVJ were dissolved in dimethyl sulfoxide, respectively, to prepare mother liquors having a concentration of 1×10^−2 M, to each of which glycerol and methanol were added and uniformly mixed, to prepare solutions finally having a concentration of 1×10^−5 M. Depending on the probes, fluorescence emission spectra of the probes were detected successively with the maximum excitation wavelength of each probe under the same conditions, and the results were shown in Table 1.
# That is, these probes are sensitive to viscosity changes and have viscosity responsiveness.
# [2] = Fluorescence of free probe prior to binding to a protein tag; assay type: physicochemical
# Method: (§1) Probes were mixed with corresponding protein tags to obtain mixed samples, in which the final probe concentration was 5 μM, and the final protein tag concentration was 10 μM. The mixed samples were incubated 37° C. for 1 hr, fluorescence spectrophotometer was used to detect the change in fluorescence intensity, and the results are shown in Table 1.
# (§2) From the quantum yield of probe bound to protein tag, after reacting with the protein tags, the probes of the Examples could be detected to have significant signal enhancement in corresponding excitation transmission channels, the fluorescence activation multiple reached several hundreds to a thousand or more, and the brightness was high, which illustrates that after the probes of the Examples are bound to the protein tags, fluorescence of the probes can be activated, and the probes have good fluorescent molecular switching properties. In contrast, though the fluorescence of the reference probes could also be activated, the quantum yield of activated fluorescence was very low, and the brightness was very poor. In particular, in view of comparison results between probe 98 and reference probe 99, probe 101 and reference probe 102, probe 103 and reference probe 104, probe 105 and reference probe 106, probe 107 and reference probe 108, probe 109 and reference probe 110, probe 111 and reference probe 112, probe 114 and reference probe 115, probe 117 and reference probe 118, probe 120 and reference probe 121 in Table 1, for the same fluorescent dye, when the ligand is connected to the electron donor part of the fluorescent dye, the fluorescence activation brightness of the probe is much higher than the reference probe in which ligand is connected to the electron acceptor part of the fluorescent dye.
# SNAP protein tags = target: T1, SNAP protein tags (Homo sapiens, UniProt P16455, A127T/A154D/C150Q/C62A/E30R/G131K/G132T/G153L/K125A/K32I/L33F/M134L/N157G/Q115S/Q116H/R128A/R135S/S151G/S152D/S159E); assay: Fluorescence activation of probe after incubation with corresponding protein tag (SNAP); assay type: biochemical; details: probe 5 μM, protein tag 10 μM, 37° C., 1 hr
# T1 sequence (P16455 1-182 E30R/K32I/L33F/C62A/Q115S/Q116H/K125A/A127T/R128A/G131K/G132T/M134L/R135S/C150Q/S151G/S152D/G153L/A154D/N157G/S159E): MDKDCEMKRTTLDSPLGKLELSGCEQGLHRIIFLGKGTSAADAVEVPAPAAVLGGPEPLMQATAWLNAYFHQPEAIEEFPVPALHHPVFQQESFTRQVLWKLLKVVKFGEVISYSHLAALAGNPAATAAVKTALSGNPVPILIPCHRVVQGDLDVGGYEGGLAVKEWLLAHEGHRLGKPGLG
# Method: as §1, §2
Emission wavelength [1] [nm],Fluorescence ratio in glycerol to methanol [1],Quantum yield of free probe [2],Fluorescence activation multiple (SNAP protein tags),Quantum yield of probe bound to protein tag (SNAP protein tags),SMILES
602,1028,<0.001,982,0.37,CN(CCOC(=O)NCc1ccc(COc2nc(N)nc3[nH]cnc23)cc1)c1ccc2nc(/C=C(\C#N)C(=O)OC(C)(C)C)oc2c1 [probe 43]
603,1459,<0.001,1586,0.37,CN(CCOC(=O)NCc1ccc(COc2cc(Cl)nc(N)n2)cc1)c1ccc2nc(/C=C(\C#N)C(=O)OC(C)(C)C)oc2c1 [probe 44]
620,682,<0.001,563,0.21,CN(CCOC(=O)NCc1ccc(COc2nc(N)nc3[nH]cnc23)cc1)c1ccc2nc(/C=C(\C#N)c3nc4ccccc4o3)oc2c1 [probe 46]
627,235,<0.001,358,0.26,CN(CCOC(=O)NCc1ccc(COc2nc(N)nc3[nH]cnc23)cc1)c1ccc2nc(/C=C(\C#N)c3nc4ccccc4s3)oc2c1 [probe 47]
601,210,<0.001,541,0.11,CN(CCOC(=O)NCc1ccc(COc2nc(N)nc3[nH]cnc23)cc1)c1ccc2nc(/C=C(\C#N)C(=O)O)oc2c1 [probe 49]
612,358,<0.001,416,0.29,CN1C(=O)/C(=C\c2nc3ccc(N(C)CCOC(=O)NCc4ccc(COc5nc(N)nc6[nH]cnc56)cc4)cc3o2)N=C1c1ccccc1 [probe 50]
625,359,<0.001,392,0.25,CN(CCOC(=O)NCc1ccc(COc2nc(N)nc3[nH]cnc23)cc1)c1ccc2nc(/C=C(\C#N)C(=O)OC(C)(C)C)sc2c1 [probe 51]
625,270,<0.001,435,0.25,CN(CCOC(=O)NCc1ccc(COc2cc(Cl)nc(N)n2)cc1)c1ccc2nc(/C=C(\C#N)C(=O)OC(C)(C)C)sc2c1 [probe 52]
650,391,<0.001,498,0.17,CN(CCOC(=O)NCc1ccc(COc2nc(N)nc3[nH]cnc23)cc1)c1ccc2nc(/C=C(\C#N)c3nc4ccccc4o3)sc2c1 [probe 54]
651,211,<0.001,382,0.25,CN(CCOC(=O)NCc1ccc(COc2nc(N)nc3[nH]cnc23)cc1)c1ccc2nc(/C=C(\C#N)c3nc4ccccc4s3)sc2c1 [probe 55]
590,419,<0.001,519,0.27,CN(CCOC(=O)NCc1ccc(COc2nc(N)nc3[nH]cnc23)cc1)c1ccc(C#C/C=C(\C#N)c2nc3ccccc3o2)cc1 [probe 58]
600,370,<0.001,498,0.39,CN(CCOC(=O)NCc1ccc(COc2nc(N)nc3[nH]cnc23)cc1)c1ccc(C#C/C=C(\C#N)c2nc3ccccc3s2)cc1 [probe 59]
620,817,0.0012,668,0.77,CN(CCOC(=O)NCc1ccc(COc2nc(N)nc3[nH]cnc23)cc1)c1cc2sc3cc(/C=C(\C#N)c4nc5ccccc5o4)sc3c2s1 [probe 61]
640,711,<0.001,592,0.32,CN(CCOC(=O)NCc1ccc(COc2nc(N)nc3[nH]cnc23)cc1)c1cc2sc3cc(/C=C(\C#N)c4nc5ccccc5s4)sc3c2s1 [probe 62]
620,632,<0.001,519,0.48,CN(CCOC(=O)NCc1ccc(COc2nc(N)nc3[nH]cnc23)cc1)c1ccc2c(c1)sc1cc(C=C(C#N)C#N)sc12 [probe 64]
650,391,<0.001,798,0.66,CN(CCOC(=O)NCc1ccc(COc2nccc(N)n2)cc1)c1ccc2c(c1)sc1cc(/C=C(/C#N)c3nc4ccccc4o3)sc12 [probe 65]
620,276,<0.001,576,0.36,COCCNC(=O)/C(C#N)=C/c1ccc(-c2ccc(N(C)CCOC(=O)NCc3ccc(COc4nc(N)nc5[nH]cnc45)cc3)cc2)s1 [probe 67]
620,381,<0.001,681,0.36,COCCNC(=O)/C(C#N)=C/c1ccc(-c2ccc(N(C)CCOC(=O)NCc3ccc(COc4cc(Cl)nc(N)n4)cc3)cc2)s1 [probe 68]
640,131,0.0026,258,0.68,CN(CCOC(=O)NCc1ccc(COc2nc(N)nc3[nH]cnc23)cc1)c1cc2cc3sc(/C=C(\C#N)C(=O)OC(C)(C)C)cc3cc2s1 [probe 70]
640,121,0.0028,239,0.67,COCCNC(=O)/C(C#N)=C/c1cc2cc3sc(N(C)CCOC(=O)NCc4ccc(COc5nc(N)nc6[nH]cnc56)cc4)cc3cc2s1 [probe 71]

SMILES,Emission wavelength [1] [nm],Fluorescence ratio in glycerol to methanol [1],Quantum yield of free probe [2],Fluorescence activation multiple (SNAP protein tags),Quantum yield of probe bound to protein tag (SNAP protein tags)
CN(CCOC(=O)NCc1ccc(COc2nc(N)nc3[nH]cnc23)cc1)c1cc2c(s1)-c1sc(C=C(C#N)C#N)cc1[Si]2(C)C [probe 73],680,325,0.0031,248,0.76
CN(CCOC(=O)NCc1ccc(COc2nc(N)nc3[nH]cnc23)cc1)c1cc2c(s1)-c1sc(/C=C(/C#N)C(=O)OC(C)(C)C)cc1[Si]2(C)C [probe 74],680,297,0.0025,311,0.78
CN(CCOC(=O)NCc1ccc(COc2nc(N)nc3[nH]cnc23)cc1)c1cc2c(s1)-c1sc(/C=C(/C#N)c3nc4ccccc4o3)cc1[Si]2(C)C [probe 75],700,105,0.0021,211,0.44

# Source: US11209437B2, “Fluorescent probe and preparation method and use thereof” (Fluorescence Diagnosis (shanghai) Biotech Company Ltd., priority 2016, dated 2021)
